DBAASP
In brackets after ≈: the same amount, converted by molar mass.

What was measured:
Assay in all cases: ≥ marks a high value that may be exact or a test limit, other limits are often not marked, values filed in µg/mL are converted to µM
[1] = system: Bacillus cereus ATCC 11778
[2] = system: Escherichia coli ATCC 25922
[3] = system: Klebsiella pneumoniae ATCC 700603
[4] = system: Pseudomonas aeruginosa ATCC 27853
[5] = system: Salmonella enterica subsp. enterica serovar Enteritidis ATCC 13076
[6] = system: Serratia marcescens ATCC 21202
[7] = system: Staphylococcus aureus ATCC 29213
[8] = system: Streptococcus pyogenes ATCC 19615
[9] = system: Acinetobacter baumannii ATCC 15308
Citrobacter sp. = system: Citrobacter sp.
Enterobacter cloacae = system: Enterobacter cloacae
Klebsiella pneumoniae = system: Klebsiella pneumoniae
[10] = system: Pseudomonas aeruginosa ATCC 15442
[11] = system: Staphylococcus aureus ATCC 25923
Staphylococcus aureus = system: Staphylococcus aureus
Streptococcus pneumoniae = system: Streptococcus pneumoniae
[12] = system: Acinetobacter baumannii ATCC 19606
[13] = system: Bacillus subtilis ATCC 6051
[14] = system: Vibrio anguillarum ATCC 43305
Bacillus cereus C737 = system: Bacillus cereus C737
Escherichia coli UB1005 = system: Escherichia coli UB1005
[15] = system: Pseudomonas aeruginosa PAO1

Structure (SMILES): CC[C@H](C)[C@H](N)C(=O)N[C@H](C(=O)N1CCC[C@H]1C(=O)N[C@@H](CC(C)C)C(=O)N1CCC[C@H]1C(=O)N[C@@H](CC(C)C)C(=O)NCC(=O)N[C@@H](Cc1ccc(O)cc1)C(=O)N[C@@H](Cc1ccccc1)C(=O)N[C@@H](C)C(=O)N[C@@H](CCCCN)C(=O)N[C@@H](CCCCN)C(=O)N1CCC[C@H]1C(=O)O)[C@@H](C)CC [IIPLPLGYFAKKP]
- MIC [1]: ≥ 68.6 µM
- MIC [2]: > 68.6 µM
- MIC [3]: > 68.6 µM
- MIC [4]: > 68.6 µM
- MIC [5]: ≥ 68.6 µM
- MIC [6]: ≥ 68.6 µM
- MIC [7]: > 68.6 µM
- MIC [8]: ≥ 68.6 µM

Structure (SMILES): NC(=O)[C@H](CCCN=C(N)N)NC(=O)[C@H](CCCN=C(N)N)NC(=O)[C@H](Cc1c[nH]c2ccccc12)NC(=O)[C@@H]1CCCN1C(=O)[C@H](Cc1c[nH]c2ccccc12)NC(=O)[C@H](Cc1c[nH]c2ccccc12)NC(=O)[C@@H]1CCCN1C(=O)[C@H](Cc1c[nH]c2ccccc12)NC(=O)[C@H](CCCN=C(N)N)NC(=O)[C@H](Cc1c[nH]c2ccccc12)NC(=O)[C@@H]1CCCN1C(=O)[C@H](CCCN=C(N)N)NC(=O)[C@@H](N)CCCN=C(N)N [RRPWRWPWWPWRR]
- MIC [9]: ≥ 124 µM
- MIC (Citrobacter sp.): ≥ 124 µM
- MIC (Enterobacter cloacae): ≥ 124 µM
- MIC [2]: 15.5 µM (≈ 31.2 µg/mL)
- MIC (Klebsiella pneumoniae): > 124 µM
- MIC [10]: 15.5 µM (≈ 31.2 µg/mL)
- MIC [11]: 15.5 µM (≈ 31.2 µg/mL)
- MIC (Staphylococcus aureus): 15.5 µM (≈ 31.2 µg/mL)
- MIC (Streptococcus pneumoniae): 15.5 µM (≈ 31.2 µg/mL)

Structure (SMILES): CC[C@H](C)[C@H](NC(=O)[C@H](CCCN=C(N)N)NC(=O)[C@H](CCCN=C(N)N)NC(=O)[C@@H](NC(=O)[C@@H](NC(=O)[C@H](CCCN=C(N)N)NC(=O)[C@H](CCCN=C(N)N)NC(=O)[C@H](Cc1ccccc1)NC(=O)[C@H](CCCN=C(N)N)NC(=O)[C@H](CCCN=C(N)N)NC(=O)[C@H](CCCN=C(N)N)NC(=O)[C@H](CCCN=C(N)N)NC(=O)[C@@H](N)CCCN=C(N)N)C(C)C)[C@@H](C)CC)C(=O)N[C@@H](CCCN=C(N)N)C(=O)N[C@@H](CC(C)C)C(=O)N1CCC[C@H]1C(=O)N[C@@H](CCCCN)C(=O)N[C@@H](Cc1ccc(O)cc1)C(=O)N[C@@H](CC(C)C)C(=O)N[C@H](C(=O)N[C@H](C(=O)N[C@@H](CC(N)=O)C(=O)N[C@H](C(=O)N[C@@H](CCC(=O)O)C(=O)O)[C@@H](C)O)[C@@H](C)CC)[C@@H](C)O [RRRRRFRRVIRRIRLPKYLTINTE]
- MIC [12]: 2 µM (≈ 6.45 µg/mL)
- MIC [13]: ≥ 32 µM
- MIC [2]: 4 µM (≈ 12.9 µg/mL)
- MIC [4]: 32 µM (≈ 103 µg/mL)
- MIC [11]: 8 µM (≈ 25.8 µg/mL)
- MIC [14]: ≥ 32 µM

Structure (SMILES): CC[C@H](C)[C@H](NC(=O)[C@H](CC(=O)O)NC(=O)[C@H](Cc1ccccc1)NC(=O)[C@H](CC(C)C)NC(=O)CN)C(=O)N[C@H](C(=O)N[C@@H](CCCCN)C(=O)N[C@@H](CCCCN)C(=O)N[C@H](C(=O)N[C@H](C(N)=O)C(C)C)C(C)C)C(C)C [GLFDIVKKVV]
- MIC (Bacillus cereus C737): ≥ 115 µM
- MIC (Escherichia coli UB1005): ≥ 115 µM
- MIC [15]: > 115 µM
